The values that follow come from patent publication EP0908457B1, “3-(1,2-benzisothiazol- and isoxazol-5-Y1)-2,4(1H,3H)-pyrimidinedione or thione and 3-(1,2-benzisothiazol- and isoxazol-5-y1)-4(3H)-pyrimidinone or thione herbicidal agents” (BASF AKTIENGESELLSCHAFT, priority 1997, dated 1999).

In data set [1] the test system is Echinochloa oryzoides (Ard.) Fritsch. Kind of data set: Preemergence weed control under flooded paddy conditions, ECHORC (Watergrass (Calif.)). Further: meaning of each grade not given here. Particulars: preemergence weeds, flooded paddy, rated three to four weeks after treatment. It is filed as in vivo.
The test system of the next data set is Cyperus iria. Kind of data set: Preemergence weed control under flooded paddy conditions, CYPIR (Rice Flatsedge). Further: meaning of each grade not given here. It counts as in vivo. Particulars: preemergence weeds, flooded paddy, rated three to four weeks after treatment.
For data set [2], the system named is Cyperus serotinus, Rottb. Kind of data set: Preemergence weed control under flooded paddy conditions, CYPSE (Flatsedge). Further: meaning of each grade not given here. It is filed as in vivo. Particulars: preemergence weeds, rated three to four weeks after treatment.
For data set [3], the system named is Monochoria vaginalis, Presl. Kind of data set: Preemergence weed control under flooded paddy conditions, MOOVA (Monochoria). Further: meaning of each grade not given here. It is filed as in vivo. Particulars: preemergence weeds, flooded paddy, rated three to four weeks after treatment.
The next data set has as its system Sagittaria pygmaea, L. Kind of data set: Preemergence weed control under flooded paddy conditions, SAGPY (Arrowhead (Pygmaea)). Further: meaning of each grade not given here. It counts as in vivo. Particulars: preemergence weeds, flooded paddy, rated three to four weeks after treatment.
The test system of data set [4] is Oryza sativa, (L.) Tebonnet. Kind of data set: Rice tolerance to post-transplant applications under flooded paddy conditions (Example 187), ORYSAT (Rice, Tebonnet). Particulars: rated three to four weeks after treatment.

With `CCc1nsc2ccc(-n3c(=O)cc(C(F)(F)F)n(C)c3=O)cc12` [Example 119, 3-(3-Ethyl-1,2-benzisothiazol-5-yl)-1-methyl-6-(trifluoromethyl)-2,4(1H,3H)-pyrimidinedione], the “herbicidal effect rating, ECHORC” value is 4.0 in data set [1] (0.0313 kg/ha), 9.0 in data set [1] (0.0625 kg/ha), 9.0 in data set [1] (0.1250 kg/ha) and 9.0 in data set [1] (0.2500 kg/ha). The “herbicidal effect rating, CYPIR” value with Cyperus iria (0.0313 kg/ha), with Cyperus iria (0.0625 kg/ha), in the data set on Cyperus iria (0.1250 kg/ha) and in the data set on Cyperus iria (0.2500 kg/ha) was 9.0 each time. Besides, the “herbicidal effect rating, CYPSE” value is 2.0 in data set [2] (0.0313 kg/ha), 4.0 in data set [2] (0.0625 kg/ha), 8.0 in data set [2] (0.1250 kg/ha) and 9.0 in data set [2] (0.2500 kg/ha). Besides, the “herbicidal effect rating, MOOVA” value in data set [3] (0.0313 kg/ha), in data set [3] (0.0625 kg/ha), in data set [3] (0.1250 kg/ha) and in data set [3] (0.2500 kg/ha) was 9.0 in each case. Also, the “herbicidal effect rating, SAGPY” value in the data set with Sagittaria pygmaea, L. (0.0313 kg/ha) was determined as 6.0; in the data set with Sagittaria pygmaea, L. (0.0625 kg/ha), 8.0; with Sagittaria pygmaea, L. (0.1250 kg/ha), 8.0; in the data set with Sagittaria pygmaea, L. (0.2500 kg/ha), 9.0. Further, the “herbicidal effect rating, ORYSAT (rice tolerance)” value (shortened to “herbicidal effect rating, ORYSAT”) was found to be 7.0 in data set [4] (0.0313 kg/ha), 8.0 in data set [4] (0.0625 kg/ha), 9.0 in data set [4] (0.1250 kg/ha) and 9.0 in data set [4] (0.2500 kg/ha).

Consider `Cc1ccc(OCC(=O)NS(C)(=O)=O)c(-c2nsc3ccc(-n4c(=O)cc(C(F)(F)F)n(C)c4=O)cc23)c1` [Example 121, N-{{{2-{5-[3,6-Dihydro-3-methyl-2,6-dioxo-4-(trifluoromethyl)-1(2H)-pyrimidinyl]-1,2-benzisothiazol-3-yl}-p-tolyl}oxy}acetyl}methanesulfonamide], for which the “herbicidal effect rating, ECHORC” value amounted to 6.0 in data set [1] (0.0313 kg/ha), 7.0 in data set [1] (0.0625 kg/ha), 8.0 in data set [1] (0.1250 kg/ha) and 9.0 in data set [1] (0.2500 kg/ha). Besides, the “herbicidal effect rating, CYPIR” value in the data set with Cyperus iria (0.0313 kg/ha) came out at 0.0; with Cyperus iria (0.0625 kg/ha) it was 0.0; with Cyperus iria (0.1250 kg/ha), 2.0; in the data set on Cyperus iria (0.2500 kg/ha) it was 4.0. Further, the “herbicidal effect rating, CYPSE” value in data set [2] (0.0313 kg/ha) turned out to be 0.0; in data set [2] (0.0625 kg/ha), 0.0; in data set [2] (0.1250 kg/ha), 2.0; in data set [2] (0.2500 kg/ha), 4.0. In addition, the “herbicidal effect rating, MOOVA” value in data set [3] (0.0313 kg/ha), in data set [3] (0.0625 kg/ha), in data set [3] (0.1250 kg/ha) and in data set [3] (0.2500 kg/ha) was 9.0 in each case. In addition, the “herbicidal effect rating, SAGPY” value is listed as 0.0 with Sagittaria pygmaea, L. (0.0313 kg/ha); 0.0 with Sagittaria pygmaea, L. (0.0625 kg/ha); 0.0 in the data set on Sagittaria pygmaea, L. (0.1250 kg/ha); 0.0 in the data set on Sagittaria pygmaea, L. (0.2500 kg/ha). Also, the “herbicidal effect rating, ORYSAT” value came to 3.0 in data set [4] (0.0313 kg/ha), 4.0 in data set [4] (0.0625 kg/ha), 6.0 in data set [4] (0.1250 kg/ha) and 9.0 in data set [4] (0.2500 kg/ha).

In the case of `Cc1ccc(S(=O)(=O)NC(=O)COc2ccc(C)cc2-c2nsc3ccc(-n4c(=O)cc(C(F)(F)F)n(C)c4=O)cc23)cc1` [Example 122, N-{{{2-{5-[3,6-Dihydro-3-methyl-2,6-dioxo-4-(trifluoromethyl)-1(2H)-pyrimidinyl]-1,2-benzisothiazol-3-yl}-p-tolyl}oxy}acetyl}-p-toluenesulfonamide], the “herbicidal effect rating, ECHORC” value in data set [1] (0.0313 kg/ha) was determined as 4.0; in data set [1] (0.0625 kg/ha) it was 7.0; in data set [1] (0.1250 kg/ha), 8.0; in data set [1] (0.2500 kg/ha), 9.0. The “herbicidal effect rating, CYPIR” value in the data set with Cyperus iria (0.0313 kg/ha), in the data set on Cyperus iria (0.0625 kg/ha), in the data set with Cyperus iria (0.1250 kg/ha) and with Cyperus iria (0.2500 kg/ha) was 0.0 throughout. Also, the “herbicidal effect rating, CYPSE” value in data set [2] (0.0313 kg/ha), in data set [2] (0.0625 kg/ha), in data set [2] (0.1250 kg/ha) and in data set [2] (0.2500 kg/ha) was 0.0 each time. Moreover, the “herbicidal effect rating, MOOVA” value in data set [3] (0.0313 kg/ha) stood at 6.0; in data set [3] (0.0625 kg/ha), 8.0; in data set [3] (0.1250 kg/ha), 9.0; in data set [3] (0.2500 kg/ha), 9.0. Further, the “herbicidal effect rating, SAGPY” value was found to be 0.0 in the data set with Sagittaria pygmaea, L. (0.0313 kg/ha); 0.0 in the data set with Sagittaria pygmaea, L. (0.0625 kg/ha); 0.0 in the data set on Sagittaria pygmaea, L. (0.1250 kg/ha); 0.0 in the data set with Sagittaria pygmaea, L. (0.2500 kg/ha). The “herbicidal effect rating, ORYSAT” value is listed as 2.0 in data set [4] (0.0313 kg/ha), 3.0 in data set [4] (0.0625 kg/ha), 4.0 in data set [4] (0.1250 kg/ha) and 4.0 in data set [4] (0.2500 kg/ha).

In the case of `Cn1c(C(F)(F)F)cc(=O)n(-c2ccc3snc(COC(=O)c4ccccc4)c3c2)c1=O` [Example 143, 3-[3-(Hydroxymethyl)-1,2-benzisothiazol-5-yl]-1-methyl-6-(trifluoromethyl)-2,4(1H,3H)-pyrimidinedione, benzoate (ester)], the “herbicidal effect rating, ECHORC” value in data set [1] (0.0313 kg/ha) is listed as 0.0; in data set [1] (0.0625 kg/ha) it was 0.0; in data set [1] (0.1250 kg/ha), 2.0; in data set [1] (0.2500 kg/ha) it was 6.0. Further, the “herbicidal effect rating, CYPIR” value in the data set on Cyperus iria (0.0313 kg/ha), in the data set on Cyperus iria (0.0625 kg/ha), in the data set with Cyperus iria (0.1250 kg/ha) and in the data set with Cyperus iria (0.2500 kg/ha) was 0.0 throughout. In addition, the “herbicidal effect rating, CYPSE” value in data set [2] (0.0313 kg/ha), in data set [2] (0.0625 kg/ha), in data set [2] (0.1250 kg/ha) and in data set [2] (0.2500 kg/ha) was 0.0 each time. Further, the “herbicidal effect rating, MOOVA” value in data set [3] (0.0313 kg/ha), in data set [3] (0.0625 kg/ha), in data set [3] (0.1250 kg/ha) and in data set [3] (0.2500 kg/ha) was 9.0 throughout. Further, the “herbicidal effect rating, SAGPY” value in the data set with Sagittaria pygmaea, L. (0.0313 kg/ha) was 0.0; in the data set with Sagittaria pygmaea, L. (0.0625 kg/ha), 0.0; in the data set with Sagittaria pygmaea, L. (0.1250 kg/ha), 0.0; in the data set with Sagittaria pygmaea, L. (0.2500 kg/ha) it was 0.0. The “herbicidal effect rating, ORYSAT” value in data set [4] (0.0313 kg/ha) was 3.0; in data set [4] (0.0625 kg/ha), 3.0; in data set [4] (0.1250 kg/ha), 3.0; in data set [4] (0.2500 kg/ha), 4.0.
